These results are taken from PubChem BioAssay (NCI).

Among the test systems are MALME-3M melanoma; K-562 leukemia; SK-MEL-5 melanoma; TK-10 renal; SNB-75 CNS; MCF7 breast; NCI-H522 lung; ACHN renal; HCC-2998 colon; SNB-19 CNS.
What all share (test): NCI anticancer screen, dose series, 48 h

SMILES strings stand for the structures. “And” between values parts separate entries of the source, which are not always exact repeats. Identical values can stand only once.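 Values below derive from 48-hour exposures of cells grown in 96-well plates, with endpoints linearly interpolated between the two concentrations bracketing the appropriate inhibition level. GI50 is the concentration that inhibits growth by half. TGI denotes the concentration required for complete inhibition of growth.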 A value given as a limit tells only on which side of the number the result lay.

For `CC(=O)c1sc2c(c1OC(=O)c1ccccc1)c(=O)n(-c1ccccc1)c(=S)n2-c1ccccc1`, the TGI is 5.92 µM with MALME-3M melanoma; > 58.3 µM in the experiment with K-562 leukemia; 18.4 µM in the experiment on SK-MEL-5 melanoma; > 86.9 µM in the experiment on TK-10 renal; 28.6 µM with SNB-75 CNS; 99.8 µM in the experiment on MCF7 breast. In addition, the TGI in the experiment on NCI-H522 lung is 67.8 µM; in the experiment on ACHN renal, 12.6 µM; in the experiment with HCC-2998 colon it was 45.4 µM; with SNB-19 CNS it was > 47.8 µM.
As for `O=c1[nH]c(Br)nc2n[nH]nc12`, the TGI in the experiment on MALME-3M melanoma, in the experiment on K-562 leukemia, with SK-MEL-5 melanoma, with TK-10 renal, in the experiment on SNB-75 CNS and with MCF7 breast was > 100 µM throughout. Also, the TGI in the experiment on NCI-H522 lung, in the experiment on ACHN renal, in the experiment with HCC-2998 colon and in the experiment on SNB-19 CNS was > 100 µM each time.
For `C[n+]1ccc2/c(=C\C#N)c3ccccc3n21`, the TGI with MALME-3M melanoma is 44.6 µM; in the experiment with K-562 leukemia it was > 100 µM; with SK-MEL-5 melanoma, 35.6 µM; in the experiment on TK-10 renal, 63.9 µM; in the experiment with MCF7 breast it was 65 µM; in the experiment with NCI-H522 lung it was 70.8 µM. Further, the TGI in the experiment with ACHN renal was > 100 µM; with HCC-2998 colon, 50.6 µM; in the experiment with SNB-19 CNS it was 30.1 µM.
Consider `C/C1=C\CC[C@@]2(C)O[C@@H]2C[C@@H]2[C@H](C/C(C)=C/CC1)OC(=O)[C@]21CO1`, for which the TGI with MALME-3M melanoma, in the experiment with K-562 leukemia, in the experiment with SK-MEL-5 melanoma, in the experiment with TK-10 renal, with SNB-75 CNS and in the experiment with MCF7 breast was > 100 µM in each case. The TGI with NCI-H522 lung, in the experiment on ACHN renal, with HCC-2998 colon and in the experiment on SNB-19 CNS was > 100 µM throughout.
Regarding `Oc1ccccc1CNCc1ccccc1O`, the TGI in the experiment with MALME-3M melanoma, in the experiment on K-562 leukemia, in the experiment on SK-MEL-5 melanoma, in the experiment on TK-10 renal, with SNB-75 CNS and in the experiment on MCF7 breast was > 100 µM each time. Also, the TGI in the experiment with NCI-H522 lung was > 100 µM; with ACHN renal it was > 100 µM; with HCC-2998 colon, 36.7 µM; in the experiment on SNB-19 CNS it was > 100 µM.
For `Cc1nnc(N)nc1C/C=C/C(C)Sc1ccc(Cl)cc1` (stereo not given), the TGI with MALME-3M melanoma is 33.7 µM; in the experiment on K-562 leukemia, > 100 µM; with SK-MEL-5 melanoma, 22.9 µM; in the experiment with TK-10 renal it was 35.9 µM; in the experiment on SNB-75 CNS, 19.2 µM; in the experiment with MCF7 breast, 33.2 µM. Moreover, the TGI with NCI-H522 lung is 16.1 µM; in the experiment on ACHN renal it was 29 µM; with HCC-2998 colon it was 31.3 µM; in the experiment on SNB-19 CNS it was > 51 µM.
Regarding `C[C@@]12C[C@@H](c3ccccc3O1)N1CCCSC1=N2`, the TGI in the experiment with MALME-3M melanoma, with K-562 leukemia, in the experiment with SK-MEL-5 melanoma, with TK-10 renal, in the experiment on SNB-75 CNS and in the experiment on MCF7 breast was > 100 µM throughout. The TGI in the experiment with NCI-H522 lung, with ACHN renal, in the experiment on HCC-2998 colon and in the experiment with SNB-19 CNS was > 100 µM in each case.
As to `CC(c1ccccc1)n1c2ccccc2c2c(N)ncnc21` (stereo not given), the TGI with MALME-3M melanoma came out at 36 µM; in the experiment on K-562 leukemia, 71.9 µM; in the experiment on SK-MEL-5 melanoma, 33.9 µM; in the experiment with TK-10 renal it was 34.9 µM; with SNB-75 CNS it was 9.19 µM; in the experiment on MCF7 breast it was 37.2 µM. Moreover, the TGI was 31.2 µM in the experiment on NCI-H522 lung, 31.9 µM with ACHN renal, 34.5 µM with HCC-2998 colon and 33.8 µM in the experiment on SNB-19 CNS.
In the case of `CCOC(OCC)[C@@H]1C[C@@H]2N(O[C@H](OC3CCCC3(c3ccccc3)c3ccccc3)[C@H](OC(C)=O)[C@@]2(CC)Cc2ccc(OC)c(OC)c2)O1` (stereo not given in full), the TGI with K-562 leukemia, with SK-MEL-5 melanoma, in the experiment on TK-10 renal, in the experiment with SNB-75 CNS, with MCF7 breast and with NCI-H522 lung was > 100 µM in each case. The TGI with ACHN renal, in the experiment on HCC-2998 colon and in the experiment with SNB-19 CNS was > 100 µM throughout.
For the compound `NCCNc1ccc(NCCN)c2c1C(=O)c1c(O)ccc(O)c1C2=O`, the GI50 in the experiment on MALME-3M melanoma was 0.112 µM; in the experiment with SK-MEL-5 melanoma it was 0.0709 µM; in the experiment with TK-10 renal, 0.289 µM; with SNB-75 CNS it was 0.0227 µM; in the experiment on NCI-H522 lung it was 0.018 µM; in the experiment with HCC-2998 colon, 0.147 µM. The GI50 in the experiment on SNB-19 CNS is 0.0145 µM. The TGI with MALME-3M melanoma is 1.46 µM and 1.34 µM; in the experiment on K-562 leukemia, 0.14 µM; in the experiment with SK-MEL-5 melanoma it was 1.47 µM and 1.11 µM; with TK-10 renal it was 3.64 µM and 1.4 µM; in the experiment on SNB-75 CNS it was 0.206 µM and 0.429 µM; with MCF7 breast it was 4.51 µM and 1.27 µM. Moreover, the TGI in the experiment with NCI-H522 lung is 0.467 µM and 0.15 µM; in the experiment on ACHN renal it was 0.117 µM and 0.0596 µM; with HCC-2998 colon, 1.24 µM; in the experiment with SNB-19 CNS, 1.14 µM and 0.254 µM.
In the case of `COc1ccc2nc3c([N+](=O)[O-])ccc4c3c(c2c1)N=CN4CCN(C)C`, the TGI with MALME-3M melanoma is 14.5 µM; in the experiment with K-562 leukemia, 2.94 µM; in the experiment with SK-MEL-5 melanoma it was 7.81 µM; in the experiment with TK-10 renal it was 21.1 µM; with SNB-75 CNS it was 12.1 µM; in the experiment on MCF7 breast it was 14.2 µM. The TGI came to 9.68 µM in the experiment on NCI-H522 lung, 16.6 µM with ACHN renal, 20.3 µM with HCC-2998 colon and 28 µM with SNB-19 CNS.
Consider `CC1=C(C(=O)NNC(=O)c2ccccc2O)CC(C(=O)NNC(=O)c2ccccc2O)=C(C)N1`, for which the TGI in the experiment on MALME-3M melanoma is > 100 µM; with K-562 leukemia it was > 100 µM; in the experiment on SK-MEL-5 melanoma, > 100 µM; in the experiment with TK-10 renal, > 100 µM; in the experiment on SNB-75 CNS, > 100 µM; with MCF7 breast, > 48.5 µM. In addition, the TGI was > 26.7 µM in the experiment with NCI-H522 lung, > 88.7 µM with ACHN renal, > 100 µM in the experiment on HCC-2998 colon and > 100 µM in the experiment with SNB-19 CNS.
Consider `O=C(Nc1ccccc1)c1cc2cc(CCl)ccc2oc1=O`, for which the TGI was > 100 µM in the experiment on MALME-3M melanoma; > 100 µM with K-562 leukemia; > 100 µM with SK-MEL-5 melanoma; > 100 µM with TK-10 renal; > 100 µM in the experiment with SNB-75 CNS; 82.9 µM with MCF7 breast. Further, the TGI in the experiment on NCI-H522 lung was > 100 µM; in the experiment on ACHN renal, 31.1 µM; in the experiment on HCC-2998 colon, > 100 µM; with SNB-19 CNS it was > 100 µM.
